According to PMC5564600 (Oncotarget, 2017):
Where two headings read alike, the source gives them in different places.

Legend:
Assay in all cases: biochemical
Format in all cases: binding
panel of 442 kinases [1] = biological target: T1, panel of 442 kinases (Homo sapiens, UniProt O14733); conditions: kinase MKK7; for remaining activity at 1 µM: read-out: % of control at 1 µM
T1 construct: purchased Ambit Biosciences (scanMAXX KINOMEscan)
T1 sequence (O14733 1-419): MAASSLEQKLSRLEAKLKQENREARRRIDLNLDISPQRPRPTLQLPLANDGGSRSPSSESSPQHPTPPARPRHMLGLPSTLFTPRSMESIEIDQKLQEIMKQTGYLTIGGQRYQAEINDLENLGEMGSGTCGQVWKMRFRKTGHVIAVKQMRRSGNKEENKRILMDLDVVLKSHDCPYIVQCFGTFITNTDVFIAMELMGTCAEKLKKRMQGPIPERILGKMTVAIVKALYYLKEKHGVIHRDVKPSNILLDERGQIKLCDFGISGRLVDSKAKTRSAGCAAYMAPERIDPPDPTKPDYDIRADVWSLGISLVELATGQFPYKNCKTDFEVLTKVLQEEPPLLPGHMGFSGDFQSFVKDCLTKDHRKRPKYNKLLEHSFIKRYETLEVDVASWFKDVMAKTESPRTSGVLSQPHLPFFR

panel of 442 kinases [2] = biological target: T2, panel of 442 kinases (Homo sapiens, UniProt P00519, F317L); conditions: for remaining activity at 1 µM: read-out: % of control at 1 µM; for remaining activity at 10 µM: read-out: % of control at 10 µM
T2 construct: purchased Ambit Biosciences (scanMAXX KINOMEscan)
T2 sequence (P00519 whole entry F317L): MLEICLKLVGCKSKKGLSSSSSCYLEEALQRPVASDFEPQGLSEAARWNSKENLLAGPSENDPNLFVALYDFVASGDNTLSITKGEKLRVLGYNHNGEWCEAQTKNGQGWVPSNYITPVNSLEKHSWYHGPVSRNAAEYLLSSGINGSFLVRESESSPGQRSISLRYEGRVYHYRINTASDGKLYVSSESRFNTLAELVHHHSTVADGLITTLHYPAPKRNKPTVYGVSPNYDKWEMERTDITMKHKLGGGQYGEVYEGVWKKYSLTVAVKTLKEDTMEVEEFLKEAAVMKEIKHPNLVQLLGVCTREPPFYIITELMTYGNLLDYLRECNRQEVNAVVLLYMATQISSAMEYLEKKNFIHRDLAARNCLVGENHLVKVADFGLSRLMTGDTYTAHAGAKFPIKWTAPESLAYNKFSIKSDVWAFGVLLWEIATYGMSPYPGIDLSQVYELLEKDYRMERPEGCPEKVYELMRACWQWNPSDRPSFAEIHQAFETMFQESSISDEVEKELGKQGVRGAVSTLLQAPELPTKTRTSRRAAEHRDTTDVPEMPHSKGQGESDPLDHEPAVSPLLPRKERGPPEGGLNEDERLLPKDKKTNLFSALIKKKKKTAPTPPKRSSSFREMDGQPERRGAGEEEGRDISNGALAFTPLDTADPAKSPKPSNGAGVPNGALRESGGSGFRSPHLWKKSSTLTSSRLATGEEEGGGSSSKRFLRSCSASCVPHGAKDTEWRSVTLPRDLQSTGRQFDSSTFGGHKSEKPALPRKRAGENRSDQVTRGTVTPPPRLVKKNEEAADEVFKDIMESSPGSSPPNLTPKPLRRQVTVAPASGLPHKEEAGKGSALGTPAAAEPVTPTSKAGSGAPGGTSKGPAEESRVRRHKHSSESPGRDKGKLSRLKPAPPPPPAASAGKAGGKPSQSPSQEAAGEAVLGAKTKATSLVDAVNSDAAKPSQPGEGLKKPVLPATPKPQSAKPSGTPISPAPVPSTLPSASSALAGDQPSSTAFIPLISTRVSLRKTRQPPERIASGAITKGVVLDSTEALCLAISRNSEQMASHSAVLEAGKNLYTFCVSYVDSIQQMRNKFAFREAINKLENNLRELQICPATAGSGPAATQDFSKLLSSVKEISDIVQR

panel of 442 kinases [3] = biological target: T3, panel of 442 kinases (Homo sapiens, UniProt P06241); conditions: kinase FYN; for remaining activity at 1 µM: read-out: % of control at 1 µM
T3 construct: purchased Ambit Biosciences (scanMAXX KINOMEscan)
T3 sequence (P06241 whole entry): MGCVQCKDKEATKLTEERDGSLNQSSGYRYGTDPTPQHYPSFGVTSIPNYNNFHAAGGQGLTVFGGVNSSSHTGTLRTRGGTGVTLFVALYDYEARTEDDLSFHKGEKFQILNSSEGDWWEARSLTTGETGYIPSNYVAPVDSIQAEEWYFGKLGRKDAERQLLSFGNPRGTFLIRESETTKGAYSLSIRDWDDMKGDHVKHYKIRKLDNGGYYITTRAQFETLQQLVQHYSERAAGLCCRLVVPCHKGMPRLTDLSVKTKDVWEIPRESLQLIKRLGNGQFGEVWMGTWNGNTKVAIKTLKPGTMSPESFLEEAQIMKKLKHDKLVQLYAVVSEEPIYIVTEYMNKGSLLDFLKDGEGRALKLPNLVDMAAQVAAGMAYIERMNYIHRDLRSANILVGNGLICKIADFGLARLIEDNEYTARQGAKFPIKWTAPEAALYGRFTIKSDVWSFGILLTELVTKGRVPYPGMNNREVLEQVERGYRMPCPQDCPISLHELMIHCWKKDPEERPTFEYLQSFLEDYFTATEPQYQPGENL

panel of 442 kinases [4] = biological target: T4, panel of 442 kinases (Homo sapiens, UniProt P17612); conditions: kinase PKAC-alpha; for remaining activity at 1 µM: read-out: % of control at 1 µM
T4 construct: purchased Ambit Biosciences (scanMAXX KINOMEscan)

panel of 442 kinases [5] = biological target: T5, panel of 442 kinases (Homo sapiens, UniProt P36888, K663Q); conditions: FLT3(K663Q); for remaining activity at 1 µM: read-out: % of control at 1 µM
T5 construct: purchased Ambit Biosciences (scanMAXX KINOMEscan)
T5 sequence (P36888 27-993 K663Q): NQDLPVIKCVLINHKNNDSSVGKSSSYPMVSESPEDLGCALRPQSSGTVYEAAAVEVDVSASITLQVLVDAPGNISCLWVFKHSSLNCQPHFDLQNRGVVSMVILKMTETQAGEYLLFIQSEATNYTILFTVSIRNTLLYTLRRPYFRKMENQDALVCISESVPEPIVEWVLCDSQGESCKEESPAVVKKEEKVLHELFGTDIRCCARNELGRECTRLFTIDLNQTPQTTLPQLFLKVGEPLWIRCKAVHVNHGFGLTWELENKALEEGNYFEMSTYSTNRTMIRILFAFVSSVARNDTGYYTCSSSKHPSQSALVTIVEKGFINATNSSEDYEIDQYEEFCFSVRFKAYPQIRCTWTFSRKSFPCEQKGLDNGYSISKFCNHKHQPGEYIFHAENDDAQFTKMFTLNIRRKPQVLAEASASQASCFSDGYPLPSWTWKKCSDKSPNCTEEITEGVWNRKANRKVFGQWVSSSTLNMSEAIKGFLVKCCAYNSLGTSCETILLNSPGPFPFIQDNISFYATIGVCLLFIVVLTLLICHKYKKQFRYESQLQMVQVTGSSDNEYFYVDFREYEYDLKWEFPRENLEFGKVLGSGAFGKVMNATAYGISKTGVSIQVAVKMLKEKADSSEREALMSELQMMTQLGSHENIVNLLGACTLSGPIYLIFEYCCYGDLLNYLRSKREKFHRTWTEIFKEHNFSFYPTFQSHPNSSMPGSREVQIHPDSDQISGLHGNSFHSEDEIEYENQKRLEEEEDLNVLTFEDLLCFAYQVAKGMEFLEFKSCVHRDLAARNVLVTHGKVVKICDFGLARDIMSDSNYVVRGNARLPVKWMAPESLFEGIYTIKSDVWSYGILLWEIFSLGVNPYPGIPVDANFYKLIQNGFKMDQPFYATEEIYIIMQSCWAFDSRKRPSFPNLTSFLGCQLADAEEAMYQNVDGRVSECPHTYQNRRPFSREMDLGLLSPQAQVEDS

panel of 442 kinases [6] = biological target: T6, panel of 442 kinases (Homo sapiens, UniProt P42684); conditions: ABL2; for remaining activity at 1 µM: read-out: % of control at 1 µM
T6 construct: purchased Ambit Biosciences (scanMAXX KINOMEscan)
T6 sequence (P42684 whole entry): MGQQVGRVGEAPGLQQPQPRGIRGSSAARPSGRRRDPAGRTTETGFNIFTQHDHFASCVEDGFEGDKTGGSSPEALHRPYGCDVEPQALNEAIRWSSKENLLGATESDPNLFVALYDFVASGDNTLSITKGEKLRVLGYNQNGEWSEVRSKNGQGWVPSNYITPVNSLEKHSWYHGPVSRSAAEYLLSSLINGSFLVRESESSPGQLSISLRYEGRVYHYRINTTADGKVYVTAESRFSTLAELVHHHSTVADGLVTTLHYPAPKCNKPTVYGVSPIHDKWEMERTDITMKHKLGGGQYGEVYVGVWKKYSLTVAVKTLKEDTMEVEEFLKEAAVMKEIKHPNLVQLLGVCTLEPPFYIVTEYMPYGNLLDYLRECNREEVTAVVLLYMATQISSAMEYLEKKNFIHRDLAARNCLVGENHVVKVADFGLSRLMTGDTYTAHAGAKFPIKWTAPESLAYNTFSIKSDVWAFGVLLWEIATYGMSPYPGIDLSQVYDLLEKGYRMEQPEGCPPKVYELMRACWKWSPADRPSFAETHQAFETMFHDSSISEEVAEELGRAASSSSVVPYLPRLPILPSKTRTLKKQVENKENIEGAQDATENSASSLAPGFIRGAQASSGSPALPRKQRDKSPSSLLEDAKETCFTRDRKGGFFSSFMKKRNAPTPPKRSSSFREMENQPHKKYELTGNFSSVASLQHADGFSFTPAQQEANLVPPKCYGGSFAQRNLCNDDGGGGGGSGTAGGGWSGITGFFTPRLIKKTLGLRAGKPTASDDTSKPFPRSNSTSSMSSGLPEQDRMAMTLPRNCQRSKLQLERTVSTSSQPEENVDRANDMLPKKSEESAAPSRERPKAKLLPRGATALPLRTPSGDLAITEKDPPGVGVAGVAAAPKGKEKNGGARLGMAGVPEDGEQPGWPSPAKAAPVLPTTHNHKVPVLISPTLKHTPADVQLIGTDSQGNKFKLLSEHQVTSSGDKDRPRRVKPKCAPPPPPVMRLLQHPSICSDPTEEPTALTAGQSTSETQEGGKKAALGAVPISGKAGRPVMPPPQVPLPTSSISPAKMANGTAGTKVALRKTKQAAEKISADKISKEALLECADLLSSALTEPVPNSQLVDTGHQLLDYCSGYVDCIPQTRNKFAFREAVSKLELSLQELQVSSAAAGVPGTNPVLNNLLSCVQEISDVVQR

panel of 442 kinases [7] = biological target: T7, panel of 442 kinases (Homo sapiens, UniProt Q09013); conditions: DMPK; for remaining activity at 1 µM: read-out: % of control at 1 µM
T7 construct: purchased Ambit Biosciences (scanMAXX KINOMEscan)
T7 sequence (Q09013 1-629): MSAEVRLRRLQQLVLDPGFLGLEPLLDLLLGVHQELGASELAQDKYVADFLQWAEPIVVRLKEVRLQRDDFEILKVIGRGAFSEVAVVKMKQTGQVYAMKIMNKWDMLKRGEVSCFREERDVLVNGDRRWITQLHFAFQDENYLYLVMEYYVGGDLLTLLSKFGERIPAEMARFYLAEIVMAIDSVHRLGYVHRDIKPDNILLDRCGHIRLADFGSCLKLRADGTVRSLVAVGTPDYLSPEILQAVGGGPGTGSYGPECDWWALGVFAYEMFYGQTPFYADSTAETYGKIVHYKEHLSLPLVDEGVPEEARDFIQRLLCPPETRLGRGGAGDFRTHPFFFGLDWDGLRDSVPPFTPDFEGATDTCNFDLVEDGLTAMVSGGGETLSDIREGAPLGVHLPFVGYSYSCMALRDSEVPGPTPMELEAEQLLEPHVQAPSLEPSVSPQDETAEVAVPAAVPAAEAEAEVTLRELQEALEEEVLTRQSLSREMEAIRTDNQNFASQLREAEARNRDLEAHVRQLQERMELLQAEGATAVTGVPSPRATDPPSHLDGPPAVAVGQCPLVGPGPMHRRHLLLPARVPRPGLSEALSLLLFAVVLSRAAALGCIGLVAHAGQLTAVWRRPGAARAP

panel of 442 kinases [8] = biological target: T8, panel of 442 kinases (Homo sapiens, UniProt Q86V86); conditions: kinase PIM3; for remaining activity at 1 µM: read-out: % of control at 1 µM
T8 construct: purchased Ambit Biosciences (scanMAXX KINOMEscan)

panel of 442 kinases [9] = biological target: T9, panel of 442 kinases (Homo sapiens, UniProt Q9BUB5); conditions: kinase MKNK1; for remaining activity at 1 µM: read-out: % of control at 1 µM
T9 construct: purchased Ambit Biosciences (scanMAXX KINOMEscan)
T9 sequence (Q9BUB5 whole entry): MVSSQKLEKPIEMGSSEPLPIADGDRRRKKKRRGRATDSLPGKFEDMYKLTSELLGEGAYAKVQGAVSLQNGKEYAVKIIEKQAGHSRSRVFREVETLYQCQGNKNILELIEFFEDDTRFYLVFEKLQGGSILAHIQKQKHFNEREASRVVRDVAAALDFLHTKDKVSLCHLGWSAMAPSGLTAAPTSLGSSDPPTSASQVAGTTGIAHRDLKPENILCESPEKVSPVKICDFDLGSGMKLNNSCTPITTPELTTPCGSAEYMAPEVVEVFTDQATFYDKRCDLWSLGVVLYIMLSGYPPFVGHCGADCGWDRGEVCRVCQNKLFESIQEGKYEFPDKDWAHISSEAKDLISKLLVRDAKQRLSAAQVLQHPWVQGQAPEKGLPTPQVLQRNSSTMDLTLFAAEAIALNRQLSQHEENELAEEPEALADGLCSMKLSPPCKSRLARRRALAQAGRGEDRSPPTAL

[10] = 10 µM, read-out: % of control at 10 µM

SMILES | remaining activity at 1 µM (panel of 442 kinases [1]) | remaining activity at 10 µM (panel of 442 kinases [1]; [10]) | remaining activity at 1 µM (panel of 442 kinases [2]; ABL1(F317L)-nonphosphorylated) | remaining activity at 10 µM (panel of 442 kinases [2]; ABL1(F317L)-nonphosphorylated) | remaining activity at 1 µM (panel of 442 kinases [2]; ABL1(F317L)-phosphorylated) | remaining activity at 10 µM (panel of 442 kinases [2]; ABL1(F317L)-phosphorylated) | remaining activity at 1 µM (panel of 442 kinases [3]) | remaining activity at 10 µM (panel of 442 kinases [3]; [10]) | remaining activity at 1 µM (panel of 442 kinases [4]) | remaining activity at 10 µM (panel of 442 kinases [4]; [10]) | remaining activity at 1 µM (panel of 442 kinases [5]) | remaining activity at 10 µM (panel of 442 kinases [5]; [10]) | remaining activity at 1 µM (panel of 442 kinases [6]) | remaining activity at 10 µM (panel of 442 kinases [6]; [10]) | remaining activity at 1 µM (panel of 442 kinases [7]) | remaining activity at 10 µM (panel of 442 kinases [7]; [10]) | remaining activity at 1 µM (panel of 442 kinases [8]) | remaining activity at 10 µM (panel of 442 kinases [8]; [10]) | remaining activity at 1 µM (panel of 442 kinases [9]) | remaining activity at 10 µM (panel of 442 kinases [9]; [10])
Nc1cc(C(F)(F)F)c(-c2cc(N3CCOCC3)nc(N3CCOCC3)n2)cn1 [Buparlisib] | 100% | 99% | 100% | 100% | 100% | 100% | 100% | 100% | 86% | 100% | 95% | 100% | 100% | 100% | 79% | 83% | 100% | 93% | 100% | 100%
Cn1c(=O)n(-c2ccc(C(C)(C)C#N)cc2)c2c3cc(-c4cnc5ccccc5c4)ccc3ncc21 [Dactolisib, 2-methyl-2-[4-(3-methyl-2-oxo-8-quinolin-3-yl-2,3-dihydroimidazo[4,5-c]quinolin-1-yl)-phenyl] propionitrile] | 100% | – | 100% | – | 100% | – | 81% | – | 100% | – | 63% | – | 100% | – | 88% | – | 100% | – | 100% | –
COc1ncc(-c2ccc3nccc(-c4ccnnc4)c3c2)cc1NS(=O)(=O)c1ccc(F)cc1F [Omipalisib] | 100% | – | 87% | – | 100% | – | 100% | – | 84% | – | 100% | – | 100% | – | 100% | – | 86% | – | 43% | –
FC(F)c1nc2ccccc2n1-c1nc(N2CCOCC2)nc(N2CCOCC2)n1 [ZSTK474, 2-(difluoromethyl)-1-[4,6-di(4-morpholinyl)-1,3,5-triazin-2-yl]-1H-benzimidazole] | 100% | – | 85% | – | 100% | – | 80% | – | 100% | – | 100% | – | 100% | – | 100% | – | 95% | – | 92% | –
